Assay results as given in patent US6683211B1, “Phenyl-propargylether derivatives” (priority 2000, dated 2004).

Key:
Format in all cases: in vivo
[1] = system: Phytophthora; assay: D-3b) systemic action against Phytophthora on potato plants; details: Phytophthora, 96 h; 200 ppm; test D-3b) systemic (soil watering); potato plants (Bintje); evaluated after 4 days; read-out: inhibit fungal infestations
Procedure: (§1) D-3: Action Against Phytophthora on Potato Plants
2-3 week old potato plants (Bintje variety) are watered with a spray mixture (0.02% active ingredient based on the volume of the soil) prepared from a wettable powder formulation of the test compound. […] After 48 hours, the treated plants are infected with a sporangia suspension of the fungus. Fungus infestation is evaluated after incubation of the infected plants for 4 days at 90-100% relative humidity and +20° C. Fungal infestation is effectively controlled with compounds of Tables 1 to 35. Compounds E1.003, E1.004, E1.009, E1.011, E1.012, E1.019, E1.020, E1.021, E1.022, E1.025, E1.031, E1.032, E1.033, E1.038, E1.045, E1.049, E1.050, E1.053, E1.085, E1.089, E1.090, E1.091, E1.102, E1.110, E1.112, E1.121, E1.125, E1.129 at 200 ppm inhibit fungal infestations in both tests D-3a) and D-3b) by 80-100%.

[2] = system: Plasmopara viticola; assay: D-1b) residual-curative action against Plasmopara viticola on vines; details: Plasmopara viticola, 144 h; 200 ppm; test D-1b) residual-curative; vine seedlings; evaluated 6 days after infection; read-out: inhibit fungal infestations
Procedure: (§2) D-1: Action Against Plasmopara viticola on Vines
b) Residual-curative Action
Vine seedlings are infected at the 4- to 5-leaf stage with a sporangia suspension of the fungus. After incubation for 24 hours in a humidity chamber at 95-100% relative humidity and +20° C., the infected plants are dried and sprayed with a spray mixture (0.02% active ingredient) prepared from a wettable powder formulation of the test compound. After the spray coating has dried, the treated plants are placed in the humidity chamber again.
Fungus infestation is evaluated 6 days after infection.

[3] = system: Plasmopara viticola; assay: D-1a) residual-protective action against Plasmopara viticola on vines; details: Plasmopara viticola, 144 h; 200 ppm; test D-1a) residual-protective; vine seedlings; evaluated after 6 days; read-out: inhibit fungal infestations
Procedure: as §2
(§3) a) Residual-protective Action
Vine seedlings are sprayed at the 4- to 5-leaf stage with a spray mixture (0.02% active ingredient) prepared from a wettable powder formulation of the test compound. After 24 hours, the treated plants are infected with a sporangia suspension of the fungus. Fungus infestation is evaluated after incubation for 6 days at 95-100% relative humidity and +20° C.

[4] = system: Phytophthora; assay: D-2a) residual-protective action against Phytophthora on tomato plants; details: Phytophthora, 120 h; 200 ppm; test D-2a) residual-protective, evaluated after 5 days, read-out: inhibit fungal infestations
Procedure: (§4) D-2: Action Against Phytophthora on Tomato Plants
as §3
After a cultivation period of 3 weeks, tomato plants are sprayed with a spray mixture (0.02% active ingredient) prepared from a wettable powder formulation of the test compound. After 48 hours, the treated plants are infected with a sporangia suspension of the fungus. Fungus infestation is evaluated after incubation of the infected plants for 5 days at 90-100% relative humidity and +20° C.

[5] = system: Phytophthora; assay: D-3a) residual-protective action against Phytophthora on potato plants; details: Phytophthora, 96 h; 200 ppm; test D-3a) residual-protective; potato plants (Bintje); evaluated after 4 days; read-out: inhibit fungal infestations
Procedure: as §1, §3
2-3 week old potato plants (Bintje variety) are sprayed with a spray mixture (0.02% active ingredient) prepared from a wettable powder formulation of the test compound. After 48 hours, the treated plants are infected with a sporangia suspension of the fungus. Fungus infestation is evaluated after incubation of the infected plants for 4 days at 90-100% relative humidity and +20° C.

[6] = system: Phytophthora; assay: D-2b) systemic action against Phytophthora on tomato plants; details: Phytophthora, 96 h; 200 ppm; test D-2b) systemic (soil watering), evaluated after 4 days, read-out: inhibit fungal infestations
Procedure: as §4
After a cultivation period of 3 weeks, tomato plants are watered with a spray mixture (0.02% active ingredient based on the volume of the soil) prepared from a wettable powder formulation of the test compound. […] After 96 hours, the treated plants are infected with a sporangia suspension of the fungus. Fungus infestation is evaluated after incubation of the infected plants for 4 days at 90-100% relative humidity and +20° C. […] Compounds E1.003, E1.004, E1.009, E1.011, E1.012, E1.014, E1.018, E1.019, E1.020, E1.021, E1.022, E1.023, E1.025, E1.031, E1.032, E1.033, E1.038, E1.040, E1.044, E1.045, E1.049, E1.050, E1.053, E1.055, E1.057, E1.064, E1.085, E1.089, E1.090, E1.091, E1.102, E1.08, E1.110, E1.112, E1.121, E1.125, E1.129, E1.139 and E1.141 at 200 ppm inhibit fungal infestations in both tests D-2a) and D-2b) by 80-100%.

Measured: inhibition at 200 ppm

C#CCOc1ccc(CCNC(=O)C(OCC#CC)c2ccc(Br)cc2)cc1OC (stereo not drawn) [Compound E1.025, 2-(4-bromo-phenyl)-2-but-2-ynyloxy-N-[2-(3-methoxy-4-prop-2-ynyloxy-phenyl)-ethyl]-acetamide]
80 to 100%: all assays above

C#CCOc1ccc(CCNC(=O)C(OCC#C)c2ccc(F)c(F)c2)cc1OC (stereo not drawn) [Compound E1.085, 2-(3,4-difluoro-phenyl)-N-[2-(3-methoxy-4-prop-2-ynyloxy-phenyl)-ethyl]-2-prop-2-ynyloxy-acetamide]
80 to 100%: all assays above

C#CCOc1ccc(CCNC(=O)C(OCC#C)c2ccc(Cl)c(Cl)c2)cc1OC (stereo not drawn) [Compound E1.102, 2-(3,4-dichloro-phenyl)-N-[2-(3-methoxy-4-prop-2-ynyloxy-phenyl)-ethyl]-2-prop-2-ynyloxy-acetamide]
80 to 100%: all assays above

C#CCOc1ccc(CCNC(=O)C(OCC=C)c2ccc(Cl)cc2)cc1OC (stereo not drawn) [Compound E1.009, 2-allyloxy-2-(4-chloro-phenyl)-N-[2-(3-methoxy-4-prop-2-ynyloxy-phenyl)-ethyl]-acetamide]
80 to 100%: all assays above

C#CCOc1ccc(CCNC(=O)C(OC)c2ccc(Cl)cc2)cc1OC (stereo not drawn) [Compound E1.003, 2-(4-Chloro-phenyl)-2-methoxy-N-[2-(3-methoxy-4-prop-2-ynyloxy-phenyl)-ethyl]-acetamide]
80 to 100%: all assays above

C#CCOc1ccc(CCNC(=O)C(OCC#C)c2ccc(Cl)c(F)c2)cc1OC (stereo not drawn) [Compound E1.091, 2-(3-fluoro-4-chloro-phenyl)-N-[2-(3-methoxy-4-prop-2-ynyloxy-phenyl)-ethyl]-2-prop-2-ynyloxy-acetamide]
80 to 100%: all assays above

C#CCOc1ccc(CCNC(=O)C(OCC)c2ccc(Cl)cc2)cc1OC (stereo not drawn) [Compound E1.004, 2-(4-chloro-phenyl)-2-ethoxy-N-[2-(3-methoxy-4-prop-2-ynyloxy-phenyl)-ethyl]-acetamide]
80 to 100%: all assays above

C#CCOc1ccc(CCNC(=O)C(OCC#C)c2ccc(F)cc2)cc1OC (stereo not drawn) [Compound E1.033, 2-(4-fluoro-phenyl)-N-[2-(3-methoxy-4-prop-2-ynyloxy-phenyl)-ethyl]-2-prop-2-ynyloxy-acetamide]
80 to 100%: all assays above

C#CCOc1ccc(CCNC(=O)C(OCC#CC)c2ccc(Cl)cc2)cc1OC (stereo not drawn) [Compound E1.014, 2-but-2-ynyloxy-2-(4-chloro-phenyl)-N-[2-(3-methoxy-4-prop-2-ynyloxy-phenyl)-ethyl]-acetamide]
80 to 100%: [2] | [3] | [4] | [6]

C#CCOc1ccc(CCNC(=O)C(OCC#C)c2ccc(C(F)(F)F)cc2)cc1OC (stereo not drawn) [Compound E1.050, N-[2-(3-methoxy-4-prop-2-ynyloxy-phenyl)-ethyl]-2-prop-2-ynyloxy-2-(4-trifluoromethyl-phenyl)-acetamide]
80 to 100%: all assays above

C#CCOc1ccc(CCNC(=O)C(OC)c2ccc(Br)cc2)cc1OC (stereo not drawn) [Compound E1.019, 2-(4-bromo-phenyl)-2-methoxy-N-[2-(3-methoxy-4-prop-2-ynyloxy-phenyl)-ethyl]-acetamide]
80 to 100%: all assays above

C#CCOc1ccc(CCNC(=O)C(OCOCC)c2ccc(Cl)cc2)cc1OC (stereo not drawn) [Compound E1.018, 2-(4-chloro-phenyl)-2-ethoxymethoxy-N-[2-(3-methoxy-4-prop-2-ynyloxy-phenyl)-ethyl]-acetamide]
80 to 100%: [2] | [3] | [4] | [6]

C#CCOc1ccc(CCNC(=O)C(OCC#C)c2ccc(F)c(Cl)c2)cc1OC (stereo not drawn) [Compound E1.090, 2-(3-chloro-4-fluoro-phenyl)-N-[2-(3-methoxy-4-prop-2-ynyloxy-phenyl)-ethyl]-2-prop-2-ynyloxy-acetamide]
80 to 100%: all assays above

C#CCOC(C(=O)NCCc1ccc(OCC#CCC)c(OC)c1)c1ccc(Br)cc1 (stereo not drawn) [Compound E1.023, 2-(4-bromo-phenyl)-N-[2-(3-methoxy-4-pent-2-ynyloxy-phenyl)-ethyl]2-prop-2-ynyloxy-acetamide]
80 to 100%: [2] | [3] | [4] | [6]
